According to paper PMC8802628, “Selective activation of PFKL suppresses the phagocytic oxidative burst” (Cell, 2021):
“Also recorded” adds a separate entry of the source. Read-outs that look alike come from different tables or passages of the source.

Legend:
PFKL = molecular target: T1, PFKL (Homo sapiens, UniProt P17858); assay: Recombinant PFKL activity assay (relief of ATP inhibition); type: biochemical
T1 construct: made in house; host or cells: Sf9 insect cells (baculovirus, Bac-to-Bac)
T1 sequence (P17858 1-780): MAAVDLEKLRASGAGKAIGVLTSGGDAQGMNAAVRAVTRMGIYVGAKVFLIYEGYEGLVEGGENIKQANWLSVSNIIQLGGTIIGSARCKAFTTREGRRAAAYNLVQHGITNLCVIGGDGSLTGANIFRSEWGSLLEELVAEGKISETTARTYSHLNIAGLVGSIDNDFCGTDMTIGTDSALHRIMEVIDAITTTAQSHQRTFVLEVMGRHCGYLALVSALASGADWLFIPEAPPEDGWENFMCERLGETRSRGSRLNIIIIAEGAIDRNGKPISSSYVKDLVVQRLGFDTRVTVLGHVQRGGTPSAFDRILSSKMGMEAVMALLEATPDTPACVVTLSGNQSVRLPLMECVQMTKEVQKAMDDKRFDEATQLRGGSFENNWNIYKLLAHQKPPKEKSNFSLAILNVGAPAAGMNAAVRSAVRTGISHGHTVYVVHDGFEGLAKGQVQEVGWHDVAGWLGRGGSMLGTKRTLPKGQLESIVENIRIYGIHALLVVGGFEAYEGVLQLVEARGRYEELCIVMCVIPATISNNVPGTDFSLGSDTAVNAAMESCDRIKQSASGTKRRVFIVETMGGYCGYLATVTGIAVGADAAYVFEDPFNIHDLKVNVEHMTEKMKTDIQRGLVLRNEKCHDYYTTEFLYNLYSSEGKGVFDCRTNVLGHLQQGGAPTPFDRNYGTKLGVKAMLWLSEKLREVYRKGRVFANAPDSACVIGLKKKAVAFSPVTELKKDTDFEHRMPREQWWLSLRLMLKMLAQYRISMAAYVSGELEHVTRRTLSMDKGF
Excerpt: (§1) Recombinant N-terminal His-tagged human PFKL (NP_002617), PFKM (NP_000280), and PFKP (NM_002627.4) were generated as described ([Webb et al., 2015], [2017]). Point mutants of PFK1 were generated using the QuikChange Lightning kit (Aligent).
His-tagged PFK1 was expressed and purified as described with slight modifications ([Webb et al., 2015], [2017]). Briefly, baculovirus was generated using the Bac-to-Bac Expression system (Invitrogen). PFK1 was expressed in 2-5 × 10^6 sf9 cells at a multiplicity of infection of two for 48 h. Cells were lysed in 20 mM HEPES, pH 7.5, 80 mM potassium phosphate, 1 mM 2-mercapentoethanol, 10% glycerol, 10 mM imidazole, and EDTA-free Protease Inhibitor Cocktail (Abcam) with a Dounce homogenizer. The soluble lysate was incubated with HisPur cobalt resin (ThermoFisher Scientific). The resin was washed with 5 bead volumes lysis buffer, 10 bead volumes lysis buffer containing 2 M NaCl, and 5 further bead volumes lysis buffer. PFK1 was eluted in lysis buffer containing 100 mM imidazole. Fractions containing protein were pooled, passed over a desalting column equilibrated in freezing buffer [20 mM HEPES pH 7.5, 1 mM DTT, 500 μM ammonium sulfate, 5% glycerol, 1 mM ATP, and 100 μM EDTA] and concentrated using an Amicon Ultracel-30K Centrifugal Filter Unit (MilliporeSigma). Protein was quantified using a Bradford Protein Assay kit (ThermoFisher Scientific), and aliquotes frozen in liquid nitrogen for storage at −80°C.
PFK1 activity was determined using the rate of FBP production via an auxiliary enzyme assay adapted to a 96-well format ([Brüser et al., 2012]; [Webb et al., 2015]). The auxiliary enzymes aldolase, triosephosphate isomerase, and glycerol phosphate dehydrogenase were purchased from MilliporeSigma as ammonium sulfate slurries and desalted using an Amicon Ultracel-10K Centrifugal Filter Unit. For assays containing FBP, the rate of ADP production was determined using the auxiliary enzymes pyruvate kinase (PK) and lactate dehydrogenase (LDH) (MilliporeSigma) in a buffer containing 250 μM phosphoenolpyruvic acid, […] NADH, 50 mM HEPES pH 7.5, 100 mM KCl, 1 mM DTT, and effector concentrations as described in the text. The temperature was equilibrated to 25°C for 5 min before initiating the reaction 10 mM MgCl2. Absorbance at 340 nm was measured using a Varioskan LUX Multimode microplate reader (ThermoFisher). Kinetic parameters were generated by nonlinear regression analysis using Prism (GraphPad Software) and are the mean of a minimum of three measurements from two independent preparations of protein. One unit of activity was defined as the amount of enzyme that catalyzed the formation of 1 μmol of fructose 1,6-bisphosphate per min at 25°C. Assays for PFKM were performed at pH 7.0 due to the pH-dependence of ATP inhibition ([Trivedi and Danforth, 1966]).

human PFKP = molecular target: T2, human PFKP (Homo sapiens, UniProt Q01813); assay: Recombinant PFKP activity assay; type: biochemical; conditions: at concentrations up to 100 μM
T2 construct: made in house; host or cells: Sf9 insect cells (baculovirus)
Excerpt: as §1
His-tagged PFK1 was expressed and purified as described with slight modifications ([Webb et al., 2015], [2017]). Briefly, baculovirus was generated using the Bac-to-Bac Expression system (Invitrogen). PFK1 was expressed in 2-5 × 10^6 sf9 cells at a multiplicity of infection of two for 48 h. […] Protein was quantified using a Bradford Protein Assay kit (ThermoFisher Scientific), and aliquotes frozen in liquid nitrogen for storage at −80°C.
PFK1 activity was determined using the rate of FBP production via an auxiliary enzyme assay adapted to a 96-well format ([Brüser et al., 2012]; [Webb et al., 2015]). […] For assays containing FBP, the rate of ADP production was determined using the auxiliary enzymes pyruvate kinase (PK) and lactate dehydrogenase (LDH) (MilliporeSigma) in a buffer containing 250 μM phosphoenolpyruvic acid, […] NADH, 50 mM HEPES pH 7.5, 100 mM KCl, 1 mM DTT, and effector concentrations as described in the text. […] Absorbance at 340 nm was measured using a Varioskan LUX Multimode microplate reader (ThermoFisher). […]

PMNs = assay: ROS detection assay (ROS-Glo) in neutrophils; type: cell-based, human; conditions: for PMA-induced ROS production: 50 nM PMA
Protocol: ROS were measured using the ROS-Glo bioluminescent assay (Promega) for the direct detection of H2O2. Briefly, neutrophils (2 × 10^4) were plated in white 96-well plates (Greiner) in high glucose DMEM medium. Cells were cultured with DMSO vehicle, 0.5 μM NA-11, 5 μM LDC7559, 100 μM apocynin, or 200 μM thionicotinamide for 30 min, and then stimulated with 50 nM PMA or treated with 10 μg/mL zymosan beads, pre-opsonized in 20% serum for 30 min. Luminescence, after the addition of H2O2 substrate solution of 20 min, and then ROS-Glo detection solution for 20 min, was recorded on a plate reader (Envision).

recombinant NE = molecular target: T3, recombinant NE (Homo sapiens, UniProt P08246); assay: NE activity assay; type: biochemical
T3 construct: purchased Abcam ab91099
Protocol: NA-11 and LDC7559 were incubated at the indicated concentrations with 25 ng of recombinant NE for 20 min. NE activity was measured using a fluorescence NE activity assay kit (Abcam).

[1] = PFKL wild type, pH 7.5, 225 μM ATP
[2] = pH 7.5, 3.1 mM ATP, 4 mM F6P, mean ± SEM, read-out: EC50, activation of PFKL wild type

T3 sequence (P08246 30-267): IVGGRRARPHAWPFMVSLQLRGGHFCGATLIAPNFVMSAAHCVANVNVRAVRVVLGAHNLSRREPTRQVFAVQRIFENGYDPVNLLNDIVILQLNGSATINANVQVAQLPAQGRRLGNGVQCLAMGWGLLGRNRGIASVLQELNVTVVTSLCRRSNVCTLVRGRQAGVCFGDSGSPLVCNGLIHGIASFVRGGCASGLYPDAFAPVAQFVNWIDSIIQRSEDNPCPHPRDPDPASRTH
T2 sequence (Q01813 whole entry): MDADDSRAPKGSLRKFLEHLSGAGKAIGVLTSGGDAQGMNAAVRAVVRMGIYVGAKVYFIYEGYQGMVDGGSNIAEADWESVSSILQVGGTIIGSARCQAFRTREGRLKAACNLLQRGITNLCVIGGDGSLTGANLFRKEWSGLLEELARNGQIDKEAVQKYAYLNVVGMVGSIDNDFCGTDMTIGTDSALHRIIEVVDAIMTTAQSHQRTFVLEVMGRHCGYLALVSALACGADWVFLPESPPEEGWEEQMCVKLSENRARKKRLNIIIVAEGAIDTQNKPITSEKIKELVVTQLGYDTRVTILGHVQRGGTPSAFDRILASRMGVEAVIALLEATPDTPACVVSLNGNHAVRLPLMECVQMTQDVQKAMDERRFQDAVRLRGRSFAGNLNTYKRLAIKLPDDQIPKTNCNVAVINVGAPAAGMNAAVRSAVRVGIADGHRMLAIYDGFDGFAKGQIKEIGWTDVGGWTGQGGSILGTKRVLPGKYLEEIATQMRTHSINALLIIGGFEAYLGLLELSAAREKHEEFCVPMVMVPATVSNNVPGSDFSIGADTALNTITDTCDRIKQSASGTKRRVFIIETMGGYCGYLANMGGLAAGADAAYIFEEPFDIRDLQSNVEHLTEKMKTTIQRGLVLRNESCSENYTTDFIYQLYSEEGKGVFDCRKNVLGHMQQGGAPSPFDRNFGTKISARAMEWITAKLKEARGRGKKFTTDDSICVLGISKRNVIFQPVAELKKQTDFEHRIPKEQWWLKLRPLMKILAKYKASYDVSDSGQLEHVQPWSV

For O=C(CO)[C@@H](O)[C@H](O)[C@H](O)COP(=O)(O)O [F6P, fructose 6-phosphate], which “Vmax,F6P” value (PFKL; [1]) is on record?
The value was 13.28 ± 1.69 micromoles FBP per minute per milligram PFK1.

What about the “hF6P (Hill coefficient)” value (PFKL; [1]) of the same compound?
The value was 3.16 ± 0.89.

What does the source list for COc1ccccc1-c1cc2n(n1)Cc1ccc(NC(C)=O)cc1OC2 [LDC7559, reference compound]?
activation of PFKP (human PFKP): failed to activate; EC50 (PFKL; [2]): 66 ± 18.9 nM; PMA-induced ROS production (PMNs): inhibited PMA-induced ROS production; inhibition of recombinant NE (recombinant NE): neither LDC7559 nor NA-11 inhibited recombinant NE

How did the EC50 (PFKL; [2]) turn out when CC(=O)Nc1ccc2c(c1)OCc1cc(-c3ccccc3)nn1C2 [NA-5] was run?
Its EC50 is 19.2 ± 6.79 nM.

What does the source list for CC(=O)Nc1ccc2c(c1)OCc1cc(-c3ccccc3C#CCCCO)nn1C2 [NA-11]?
activation of PFKP (human PFKP): failed to activate; EC50 (PFKL; Control (ligand series), pH 7.5, 4.0 mM F6P, 3.1 mM ATP, read-out: EC50, NA-11): 12 ± 2.73 nM; Vmax (PFKL; NA-11 titration with 50 μM AMP, pH 7.5, 4.0 mM F6P, 3.1 mM ATP): 18.11 ± 1.23 μmoles FBP per min per mg PFK1; Vmax (PFKL; NA-11 titration with 200 μM FBP, pH 7.5, 4.0 mM F6P, 3.1 mM ATP): 21.31 ± 2.44 μmoles FBP per min per mg PFK1; Vmax (PFKL; NA-11 titration, Control, pH 7.5, 4.0 mM F6P, 3.1 mM ATP): 18.19 ± 1.29 μmoles FBP per min per mg PFK1; EC50 (PFKL; pH 7.0, 4.0 mM F6P, 3.1 mM ATP, mean ± s.e.m., read-out: EC50, NA-11): 74 ± 20.9 nM; EC50 (PFKL; pH 7.5 (pH series), 4.0 mM F6P, 3.1 mM ATP, mean ± s.e.m., read-out: EC50, NA-11): 21.8 ± 6.21 nM; EC50 (PFKL; [2]): 14 ± 2.91 nM; EC50 (PFKL; pH 8.0, 4.0 mM F6P, 3.1 mM ATP, mean ± s.e.m., read-out: EC50, NA-11): 4.11 ± 0.92 nM; EC50 (PFKL; with 50 μM AMP, pH 7.5, 4.0 mM F6P, 3.1 mM ATP, read-out: EC50, NA-11): 12.3 ± 3.38 nM; EC50 (PFKL; with 200 μM FBP, pH 7.5, 4.0 mM F6P, 3.1 mM ATP, read-out: EC50, NA-11): 12 ± 6.99 nM; PMA-induced ROS production (PMNs): inhibited PMA-induced ROS production; also recorded: markedly suppressed, but did not completely prevent, PMA-induced ROS; ROS production during phagocytosis of opsonized zymosan (PMNs; over 2 h): kept ROS production at basal levels; inhibition of recombinant NE (recombinant NE): neither LDC7559 nor NA-11 inhibited recombinant NE
